Measured values published in patent USRE45471E1, “Pharmaceutical composition or combination drug” (Nanocarrier Co., Ltd., priority 2008, dated 2015).
Where a name gives a salt, the structure may show the parent alone.

System: CDDP-resistant human lung cancer MOR/CPR cells
Assay: In vitro cell growth inhibitory effect (WST method) on CDDP-resistant human lung cancer MOR/CPR cells
Type: cell-based
Conditions: gemcitabine hydrochloride alone, estimated
Procedure: The GI50 value in the case of gemcitabine hydrochloride alone was estimated to be about 10 μg/mL.
The cisplatin coordination compound obtained in Example 1 was prepared as a mannitol solution having a final concentration of 5% so as to contain 2.5 mg/mL in terms of CDDP. […] Furthermore, the concentrations or dosages of the cis-platin coordination compound are all indicated as the concentrations or dosages in terms of CDDP.

## Nc1ccn([C@@H]2O[C@H](CO)[C@@H](O)C2(F)F)c(=O)n1 [gemcitabine hydrochloride, Gemcitabine hydrochloride]
  GI50: ~10 µg/mL
